Experimental data: patent publication US8686190B2, “Bis-aromatic anticancer agents” (The UAB Research Foundation, priority 2008, dated 2014)

Key:
LS174-T = assay: Cytotoxicity screening, LS174-T cells; format: cell-based; conditions: Homo sapiens, LS174T; for IC50: read-out: IC50, drug dose to inhibit 50% cell proliferation; for inhibition at 10 µM: treatment at 10 μM, 24 h treatment then 96 h incubation
Procedure: (§1) Tumor cells were maintained as monolayers in 75-cm^2 tissue culture flasks using their respective cell culture medium containing 10% fetal bovine serum and 2 mM L-glutamine. The cells were incubated at 37° C. under a humidified 5% CO2: air atmosphere (standard conditions) for five days. The cells were harvested when in mid-log growth and their concentration was determined using a particle counter (Beckman Coulter, Inc, Fullerton, Calif.). An aliquot of the cell suspension was diluted in culture medium for delivery to a 24-well tissue culture plate at a range of 10,000 to 30,000 per 1 mL per well. After 24 h, quadruplicate wells were inoculated with either vehicle (untreated controls) or test compounds at various concentrations. After 24 h of incubation, the wells were aspirated, washed once with 1 mL PBS, and refilled with 1 mL treatment-free medium. Following a 96-h incubation under the initial treatment conditions, the viable cells were counted and the numbers were normalized to the percent of untreated controls. The extent of cytotoxicity in treated wells as compared to the controls and the dose that inhibits 50% cell proliferation (IC50) was calculated.

Panc-1 = assay: Cytotoxicity screening, Panc-1 cells; format: cell-based; conditions: Homo sapiens; for inhibition at 10 µM: Panc-1, treatment at 10 μM, 24 h treatment then 96 h incubation, read-out: Inhibition: percent cell death normalized against controls
Procedure: as §1

PC-3 = assay: Cytotoxicity screening, PC-3 cells; format: cell-based; conditions: Homo sapiens; for IC50: read-out: IC50, drug dose to inhibit 50% cell proliferation; for inhibition at 10 µM: treatment at 10 μM, 24 h treatment then 96 h incubation, read-out: Inhibition: percent cell death normalized against controls
Procedure: as §1

[1] = system: LS174-T human colon carcinoma tumors; assay: Evaluation of antitumor activity, nude mouse model of LS174-T tumors; format: in vivo; conditions: female nude mice, sc LS174-T tumors, iv qdx5; untreated control 15 days; n=8, p=0.043
Procedure: Antitumor activity of compound II-e was evaluated using a nude mouse model of Ls174-T human colon cancer tumors. Female nude mice were implanted subcutaneously (sc) with LS174-T human colon carcinoma cells (10^7 cells/mouse). When tumors reached a cross diameter of 7 mm, the mice were randomized into 2×8 groups and were injected iv with either the vehicle (5% dextrose solution containing 20% 50:50, Cremophore EL: ethanol)) or a solution II-e in the same solvent system. The protocol used was qdx5 injections every 24 h. Tumor volumes were monitored by caliper measurement 3× weekly (see FIG. 1 wherein circles correspond to inactivated compound IIe; triangles correspond to vehicle; and squares correspond to compound II-e).

MIA PaCa-2 = assay: Cytotoxicity screening, MIA PaCa-2 cells; format: cell-based; conditions: Homo sapiens; for IC50: read-out: IC50, drug dose to inhibit 50% cell proliferation; for inhibition at 10 µM: treatment at 10 μM, 24 h treatment then 96 h incubation
Procedure: as §1

[2] = measured at 7.5 μM, read-out: Inhibition: percent cell death normalized against controls
[3] = read-out: Inhibition: percent cell death normalized against controls

| SMILES | inhibition at 7.5 µM (LS174-T; [2]) | IC50 (LS174-T) | inhibition at 10 µM (LS174-T; [3]) | IC50 (Panc-1; PANC-1, read-out: IC50, drug dose to inhibit 50% cell proliferation) | inhibition at 10 µM (Panc-1) | IC50 (PC-3) | inhibition at 10 µM (PC-3) | Tumor doubling time [1] | inhibition at 7.5 µM (MIA PaCa-2; [2]) | IC50 (MIA PaCa-2) | inhibition at 10 µM (MIA PaCa-2; [3]) |
| --- | --- | --- | --- | --- | --- | --- | --- | --- | --- | --- | --- |
| OC(CSCC(O)c1cc(C(F)(F)F)cc(C(F)(F)F)c1)c1cc(C(F)(F)F)cc(C(F)(F)F)c1 (stereo not shown) [II-e] | 96 ± 1% | 3.6 µM | 96% | 6.3 µM | 80 ± 4% | 4.4 µM | 78 ± 4% | 30 days | 94 ± 2% | 3.7 µM | 94 ± 2% |
| OC(CSCC(O)c1ccccc1)c1ccccc1 (stereo not shown) [II-a] |  |  |  |  |  |  | 5 ± 9% |  |  |  |  |
| OC(CSCC(O)c1ccc(OC(F)(F)F)cc1)c1ccc(OC(F)(F)F)cc1 (stereo not shown) [II-c] |  |  | 13 ± 7% |  | 43 ± 9% |  | 40 ± 7% |  |  |  | 34 ± 14% |
| COc1cccc(C(O)CSCC(O)c2cccc(OC)c2OC)c1OC (stereo not shown) [II-b] |  |  | 0% |  | 0% |  | 8 ± 4% |  |  |  | 0% |
| CC(=O)C(CSCC(C(C)=O)c1cc(C(F)(F)F)cc(C(F)(F)F)c1)c1cc(C(F)(F)F)cc(C(F)(F)F)c1 (stereo not shown) [II-e bis-OAc, 4,4′-thiobis(3-(3,5-bis(trifluoromethyl)phenyl)butan-2-one)] |  |  |  |  |  |  |  |  |  |  | 29 ± 6% |
| COc1cc(/C=C/C(=O)CC(=O)/C=C/c2ccc(O)c(OC)c2)ccc1O [curcumin, reference compound] |  | 6.5 µM |  |  |  | 12 µM |  |  |  | 9 µM |  |
| OC(CSCC(O)c1ccc(C(F)(F)F)cc1)c1ccc(C(F)(F)F)cc1 (stereo not shown) [II-d] |  |  | 33 ± 6% |  | 27 ± 5% |  | 43 ± 4% |  |  |  | 11 ± 4% |
